Source: paper PMC7336994, “Cytotoxic compounds from the leaves and stems of the endemic Thai plant Mitrephora sirikitiae” (Pharmaceutical Biology, 2020)
Read-outs that look alike come from different tables or passages of the source.

Columns and labels:
ASK (rat glioma) = experiment: SRB cytotoxicity assay, ASK cells; type: cell-based; conditions: 72 h, read-out: IC50 ASK
Procedure: (§1) The methanol extracts and the isolated compounds were evaluated for their cytotoxic activities against several cell lines, including murine lymphocytic leukaemia (P-388), human oral epidermoid carcinoma (KB), human colon carcinoma (Col-2 and HT-29), human breast cancer (MCF-7), human lung carcinoma (Lu-1 and A549), rat glioma (ASK), and noncancerous human embryonic kidney cell (HEK-293) by sulforhodamine B (SRB) assay in 96-well microtiter plates (Skehan et al. [1990]). This method measures the cellular protein content of cultures in 96-well microtiter plates. The cell lines were seeded into 96-well microtiter plates and treated with the test compounds at concentrations of 0.16–20 µg/mL for 72 h, except for the P-388 cells, which were treated for 48 h. Then the cell cultures were fixed with 20% trichloroacetic acid (Merck) and stained with 0.4% SRB (Sigma-Aldrich) dissolved in 1% acetic acid (Merck) for 1 h. The cellular-protein-bound dye was extracted with 10 mM unbuffered Trisbase solution (pH 10.5) (Sigma-Aldrich) for the determination of optical density at 510 nm with a microtiter plate reader (Thermo Scientific™ Multiskan™ GO Microplate Spectrophotometer). The cytotoxic potency was expressed as median inhibition concentrations (IC50), the concentration that inhibits 50% of cell viability (µg/mL and µM). The IC50 values were determined from the nonlinear regression curve fit in GraphPad Prism software (version 5). Ellipticine (Sigma-Aldrich), a cytotoxic plant alkaloid causing topoisomerase II inhibition and DNA intercalation, was used as a positive control.

[1] = test system: KB (human oral epidermoid carcinoma); experiment: SRB cytotoxicity assay, KB cells; type: cell-based; conditions: 72 h, read-out: IC50 KB
Procedure: as §1

[2] = test system: P-388 (murine lymphocytic leukaemia); experiment: SRB cytotoxicity assay, P-388 cells; type: cell-based; conditions: Mus musculus, read-out: IC50 P-388
Procedure: as §1

[3] = test system: A549 (human lung carcinoma); experiment: SRB cytotoxicity assay, A549 cells; type: cell-based; conditions: read-out: IC50 A549
Procedure: as §1

[4] = test system: MCF-7 (human breast cancer); experiment: SRB cytotoxicity assay, MCF-7 cells; type: cell-based; conditions: read-out: IC50 MCF-7
Procedure: as §1

[5] = test system: HT-29 (human colon carcinoma); experiment: SRB cytotoxicity assay, HT-29 cells; type: cell-based; conditions: read-out: IC50 HT-29
Procedure: as §1

[6] = test system: Hek-293 (noncancerous human embryonic kidney cell); experiment: SRB cytotoxicity assay, Hek-293 cells; type: cell-based; conditions: read-out: IC50 Hek-293
Procedure: as §1

[7] = test system: P-388, KB, HT-29, MCF-7, A549, ASK and Hek-293 cells; experiment: SRB cytotoxicity assay, panel of tested cell lines (summary statements); type: cell-based
Procedure: as §1

[8] = P388, SRB assay, 0.16–20 µg/mL, 48 h
[9] = A549, SRB assay, 0.16–20 µg/mL, 72 h
[10] = MCF7, SRB assay, 0.16–20 µg/mL, 72 h
[11] = HT-29, SRB assay, 0.16–20 µg/mL, 72 h
[12] = read-out: IC50 values, range against all tested cell lines
[13] = Homo sapiens, HEK293, 72 h, SRB assay, non-cancerous cells, 0.16–20 µg/mL, 72 h
[14] = read-out: IC50 values, range for some of the tested cells
[15] = SRB assay, non-cancerous cells, 0.16–20 µg/mL, 72 h

| Structure (SMILES) | IC50 (ASK (rat glioma)) | IC50 [1] | IC50 ([2]; P388, 48 h) | IC50 ([3]; A549, 72 h) | IC50 ([4]; MCF7, 72 h) | IC50 ([5]; HT-29, 72 h) | IC50 ([6]; Homo sapiens, HEK293, 72 h) | IC50 (ASK (rat glioma); SRB assay, 0.16–20 µg/mL) | IC50 ([1]; SRB assay, 0.16–20 µg/mL) | IC50 [2, 8] | IC50 [3, 9] | IC50 [4, 10] | IC50 [5, 11] | IC50 [7, 12] | IC50 [6, 13] | IC50 [7, 14] | melting point | IC50 ([7]; P-338, HT-29, MCF-7 and A549, read-out: IC50 values, range over four tested cell lines) | IC50 [6, 15] |
| --- | --- | --- | --- | --- | --- | --- | --- | --- | --- | --- | --- | --- | --- | --- | --- | --- | --- | --- | --- |
| COc1cc2c(cc1OC)-c1c3c(cc4ccnc(c14)C2=O)OCO3 [Compound 10, dicentrinone] | > 20 µM | > 20 µM | > 20 µM | > 20 µM | 36.9 ± 1.13 µM | > 20 µM | > 20 µM |  |  |  |  |  |  |  |  |  |  |  |  |
| COc1cccc2c1-c1c3c(cc4ccnc(c14)C2=O)OCO3 [Compound 11, oxoputerine] |  |  |  |  |  |  |  | 6.59 ± 0.43 µM | 7.67 ± 0.3 µM | 6.72 ± 0.36 µM | 7.21 ± 0.79 µM | 7.05 ± 0.2 µM | 7.28 ± 0.23 µM | 6.59 to 11 µM | 7.31 ± 0.07 µM |  |  |  |  |
| COc1ccc([C@@H]2Oc3c(OC)cc(CCCO)cc3[C@H]2CO)cc1OC [Compound 7, 3′,4-O-dimethylcedrusin] |  |  |  |  |  |  |  | > 20 µM | 2.03 ± 0.11 µM | 25.9 ± 2.99 µM | 10.3 ± 2.49 µM | 3.77 ± 0.05 µM | 19.7 ± 1.52 µM |  | 8.48 ± 4.04 µM | 2.03 to 19.7 µM |  |  |  |
| COc1cc(C2OCC(C(=O)c3ccc(OC)c(OC)c3)C2CO)ccc1O (stereo not drawn) [Compound 6, mitrephoran] |  |  |  |  |  |  |  | > 20 µM | > 20 µM | > 20 µM | > 20 µM | 28.63 ± 0.15 µM | > 20 µM |  | > 20 µM |  | 146 to 148 °C |  |  |
| CC1(C(=O)O)CCCC2(C)C1CC(O)C13CC4C(CC21)C4(C)C3 (stereo not drawn) [Compound 14, ciliaric acid] |  |  |  |  |  |  |  | > 20 µM | > 20 µM | > 20 µM | > 20 µM | > 20 µM | > 20 µM |  | > 20 µM |  |  |  |  |
| Cc1c2ccncc2c(C)c2c1[nH]c1ccccc12 [Ellipticine, reference compound] |  |  |  |  |  |  |  | 2.56 ± 0.04 µM | 2.36 ± 0.04 µM | 2.03 ± 0.08 µM | 2.64 ± 0.24 µM | 2.15 ± 0.08 µM | 2.4 ± 0.04 µM |  | 2.68 ± 0.08 µM |  |  |  |  |
| COc1ccc(C2OCC3C(c4ccc(OC)c(OC)c4)OCC23)cc1OC (single isomer, unassigned; (-)) [Compound 1, (–)-epieudesmin] |  |  |  |  |  |  |  | > 20 µM | > 20 µM | > 20 µM | > 20 µM | > 20 µM | > 20 µM |  | > 20 µM |  |  |  |  |
| COc1cc(C2OCC3C(c4ccc(OC)c(OC)c4)OCC23)ccc1O (single isomer, unassigned; (-)) [Compound 2, (–)-phylligenin] |  |  |  |  |  |  |  | > 20 µM | > 20 µM | 32.5 ± 2.04 µM | > 20 µM | 36.1 ± 1.02 µM | > 20 µM |  | > 20 µM |  |  |  |  |
| COc1cc(OC)cc(C2OCC3C(c4ccc(OC)c(OC)c4)OCC23)c1 (stereo not drawn) [Compound 8, 2-(3,4-dimethoxyphenyl)-6-(3,5-dimethoxyphenyl)-3,7-dioxabicyclo[3.3.0]octane] |  |  |  |  |  |  |  | > 20 µM | 15.9 ± 0.36 µM | > 20 µM | > 20 µM | 21.9 ± 2.96 µM | > 20 µM |  | 16.5 ± 0.94 µM |  |  |  |  |
| COc1cc(/C=C/C(=O)NCCc2ccc(O)cc2)ccc1O [Compound 9, N-trans-feruloyltyramine] |  |  |  |  |  |  |  | > 20 µM | > 20 µM | > 20 µM | > 20 µM | > 20 µM | > 20 µM |  | > 20 µM |  |  |  |  |
| O=C1c2ccccc2-c2c3c(cc4ccnc1c24)OCO3 [Compound 5, liriodenine] | 10.7 ± 0.95 µM | 11.02 ± 0.11 µM | 9.6 ± 0.58 µM | 9.45 ± 0.18 µM | 9.2 ± 0.25 µM | 10.6 ± 0.36 µM | 8.07 ± 0.11 µM |  |  |  |  |  |  | 6.59 to 11 µM |  |  |  |  |  |
| CCC(CCC(C)C1CCC2C3CC=C4CC(OC5OC(CO)C(O)C(O)C5O)CCC4(C)C3CCC12C)C(C)C (stereo not drawn) [Compound 4, stigma-5-en-3-O-β-glucopyranoside] |  |  |  |  |  |  |  | > 20 µM | > 20 µM | > 20 µM | > 20 µM | > 20 µM | > 20 µM |  | > 20 µM |  |  |  |  |
| COc1cc2c(cc1O)-c1cc3ccc(O)c(OC)c3c[n+]1CC2 [Compound 16, stepharanine] | > 20 µM | > 20 µM | > 20 µM | > 20 µM | > 20 µM | > 20 µM | > 20 µM |  |  |  |  |  |  |  |  |  |  |  |  |
| COc1cccc2c1C(=O)c1c(C)cc(=O)[nH]c1C2=O [Compound 15, 6-methoxymarcanine A] |  |  |  |  |  |  |  | 38.7 ± 1.12 µM | 38.1 ± 0.52 µM | 9.55 ± 2.83 µM | 12.3 ± 0.37 µM | 8.33 ± 0.63 µM | 10.15 ± 0.07 µM |  | > 20 µM | 2.03 to 19.7 µM |  | 8.33 to 12.3 µM | > 20 µM |
| COc1ccc(C(=O)[C@H]2CO[C@H](c3ccc(OC)c(OC)c3)[C@H]2CO)cc1OC [Compound 3, magnone A] |  |  |  |  |  |  |  | > 20 µM | 20.6 ± 3.88 µM | 8.96 ± 0.7 µM | 37.9 ± 5.42 µM | 4.4 ± 0.1 µM | 27.6 ± 3.53 µM |  | > 20 µM | 2.03 to 19.7 µM |  |  | 23.2 ± 1.17 µM |
